Tests used:
[1] = molecular target: T1, EGFR tyrosine kinase (Homo sapiens, UniProt P00533); assay: Test (a) protein tyrosine kinase phosphorylation assay, EGFR; type: biochemical; conditions: ATP at Km concentration; read-out: IC50 Test (a): Inhibition of EGFR tyrosine kinase protein phosphorylation
T1 construct: Recombinant intracellular fragments of EGFR, erbB2 and erbB4; made in house; host or cells: baculovirus/Sf21 insect cells (cleared lysate used)
Description: (§1) This test measures the ability of a test compound to inhibit the phosphorylation of a tyrosine containing polypeptide substrate by EGFR, erbB2 and erbB4 tyrosine kinase enzyme.
(§2) Recombinant intracellular fragments of EGFR, erbB2 and erbB4 (accession numbers X00588, X03363 and L07868 respectively) were cloned and expressed in the baculovirus/Sf21 system. […]
(§3) Constitutive kinase activity of these recombinant proteins was determined by their ability to phosphorylate a synthetic peptide (made up of a random co-polymer of Glutamic Acid, Alanine and Tyrosine in the ratio of 6:3:1). […]
(§4) The immobilised phospho-peptide product of the reaction was detected by immunological methods. […] After further washing, HRP activity in each well of the plate was measured colorimetrically using 22′-Azino-di-[3-ethylbenzthiazoline sulfonate (6)] diammonium salt crystals (ABTS™ from Roche) as a substrate.
(§5) Quantification of colour development and thus enzyme activity was achieved by the measurement of absorbance at 405 nm on a Molecular Devices ThermoMax microplate reader. Kinase inhibition for a given compound was expressed as an IC50 value. […] The range of phosphorylation was calculated from the positive (vehicle plus ATP) and negative (vehicle minus ATP) control values.

[2] = molecular target: T2, erbB2 tyrosine kinase (Homo sapiens, UniProt P04626); assay: Test (a) protein tyrosine kinase phosphorylation assay, erbB2; type: biochemical; conditions: ATP at Km concentration; read-out: IC50 Test (a): Inhibition of erbB2 tyrosine kinase protein phosphorylation
T2 construct: Recombinant intracellular fragments of EGFR, erbB2 and erbB4; made in house; host or cells: baculovirus/Sf21 insect cells (cleared lysate used)
T2 sequence (P04626 676-1255 limits assumed): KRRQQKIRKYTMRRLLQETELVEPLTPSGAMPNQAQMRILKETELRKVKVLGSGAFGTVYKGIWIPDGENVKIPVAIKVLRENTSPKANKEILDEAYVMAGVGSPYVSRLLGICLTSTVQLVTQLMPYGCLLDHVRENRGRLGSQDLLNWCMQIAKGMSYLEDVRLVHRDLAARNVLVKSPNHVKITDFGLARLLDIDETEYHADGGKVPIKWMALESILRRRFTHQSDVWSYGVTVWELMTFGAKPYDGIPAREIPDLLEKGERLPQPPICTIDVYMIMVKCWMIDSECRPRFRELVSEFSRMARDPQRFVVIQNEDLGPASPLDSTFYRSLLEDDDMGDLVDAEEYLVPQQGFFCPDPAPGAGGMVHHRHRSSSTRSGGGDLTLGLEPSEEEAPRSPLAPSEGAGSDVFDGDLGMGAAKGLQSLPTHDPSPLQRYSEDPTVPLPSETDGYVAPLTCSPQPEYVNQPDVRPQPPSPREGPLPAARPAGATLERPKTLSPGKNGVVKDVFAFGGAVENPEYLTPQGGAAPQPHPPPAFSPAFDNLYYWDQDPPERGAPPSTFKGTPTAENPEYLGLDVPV
Description: as §1, §2, §3, §4, §5

[3] = molecular target: T3, erbB2 in a MCF7 derived cell line (Clone 24 cells) (Homo sapiens, UniProt P04626); assay: Test (c) Clone 24 phospho-erbB2 cell assay; type: cell-based; conditions: MCF7 derived Clone 24 cells, 4 hours with compound; read-out: IC50 Test (c): Inhibition of erbB2 tyrosine kinase protein phosphorylation
T3 construct: to give a cell line that overexpresses full length wild type erbB2 protein; expressed in transfected cells; host or cells: MCF7 (breast carcinoma) derived Clone 24 cells
T3 sequence (P04626 23-1255): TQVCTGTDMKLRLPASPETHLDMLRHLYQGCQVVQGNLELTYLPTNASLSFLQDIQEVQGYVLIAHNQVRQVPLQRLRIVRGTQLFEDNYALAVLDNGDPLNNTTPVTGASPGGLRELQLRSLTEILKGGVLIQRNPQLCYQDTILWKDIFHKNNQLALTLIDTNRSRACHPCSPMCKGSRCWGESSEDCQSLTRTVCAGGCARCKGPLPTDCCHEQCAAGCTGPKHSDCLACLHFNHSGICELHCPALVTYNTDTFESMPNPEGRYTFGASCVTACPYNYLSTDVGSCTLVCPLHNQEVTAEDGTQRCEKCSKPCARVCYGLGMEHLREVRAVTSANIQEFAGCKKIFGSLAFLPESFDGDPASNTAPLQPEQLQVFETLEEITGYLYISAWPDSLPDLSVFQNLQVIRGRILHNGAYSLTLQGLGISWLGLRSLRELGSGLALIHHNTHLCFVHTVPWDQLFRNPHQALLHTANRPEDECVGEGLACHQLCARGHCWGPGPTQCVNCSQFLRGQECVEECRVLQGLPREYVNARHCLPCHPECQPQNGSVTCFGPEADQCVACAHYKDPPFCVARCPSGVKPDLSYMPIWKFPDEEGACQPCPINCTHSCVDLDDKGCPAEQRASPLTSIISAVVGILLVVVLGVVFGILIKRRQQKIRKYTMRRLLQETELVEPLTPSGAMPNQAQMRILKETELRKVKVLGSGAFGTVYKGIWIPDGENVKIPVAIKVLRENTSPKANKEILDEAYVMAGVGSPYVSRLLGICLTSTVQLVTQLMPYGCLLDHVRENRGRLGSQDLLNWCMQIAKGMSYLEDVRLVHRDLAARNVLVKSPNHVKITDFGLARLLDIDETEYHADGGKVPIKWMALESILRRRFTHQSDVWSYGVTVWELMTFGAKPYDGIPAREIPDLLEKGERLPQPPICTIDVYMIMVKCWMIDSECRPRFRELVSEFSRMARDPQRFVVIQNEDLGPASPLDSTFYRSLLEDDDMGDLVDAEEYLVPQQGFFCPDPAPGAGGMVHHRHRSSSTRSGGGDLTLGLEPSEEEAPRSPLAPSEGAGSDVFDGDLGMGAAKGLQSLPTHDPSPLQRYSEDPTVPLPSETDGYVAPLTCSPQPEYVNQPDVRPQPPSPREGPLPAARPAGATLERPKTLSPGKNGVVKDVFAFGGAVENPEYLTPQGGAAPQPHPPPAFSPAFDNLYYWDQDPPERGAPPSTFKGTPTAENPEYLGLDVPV
Description: This immunofluorescence end point assay measures the ability of a test compound to inhibit the phosphorylation of erbB2 in a MCF7 (breast carcinoma) derived cell line which was generated by transfecting MCF7 cells with the full length erbB2 gene using standard methods to give a cell line that overexpresses full length wild type erbB2 protein (hereinafter ‘Clone 24’ cells).
Clone 24 cells were cultured in Growth Medium (phenol red free Dulbecco's modified Eagle's medium (DMEM) containing 10% foetal bovine serum, 2 mM glutamine and 1.2 mg/ml G418) in a 7.5% CO2 air incubator at 37° C. […] Cell density was measured using a haemocytometer and viability was calculated using Trypan Blue solution before being further diluted in Growth Medium and seeded at a density of 1×10^4 cells per well (in 100 μl) into clear bottomed 96 well plates (Packard, No. 6005182). […]
Immunostaining was performed at room temperature. […] Plates were analysed within six hours of completing the immunostaining.
The Fluorescence signal is each well was measured using an Acumen Explorer Instrument (Acumen Bioscience Ltd.), a plate reader that can be used to rapidly quantitate features of images generated by laser-scanning. […]

T1 sequence (P00533 669-1210 limits assumed): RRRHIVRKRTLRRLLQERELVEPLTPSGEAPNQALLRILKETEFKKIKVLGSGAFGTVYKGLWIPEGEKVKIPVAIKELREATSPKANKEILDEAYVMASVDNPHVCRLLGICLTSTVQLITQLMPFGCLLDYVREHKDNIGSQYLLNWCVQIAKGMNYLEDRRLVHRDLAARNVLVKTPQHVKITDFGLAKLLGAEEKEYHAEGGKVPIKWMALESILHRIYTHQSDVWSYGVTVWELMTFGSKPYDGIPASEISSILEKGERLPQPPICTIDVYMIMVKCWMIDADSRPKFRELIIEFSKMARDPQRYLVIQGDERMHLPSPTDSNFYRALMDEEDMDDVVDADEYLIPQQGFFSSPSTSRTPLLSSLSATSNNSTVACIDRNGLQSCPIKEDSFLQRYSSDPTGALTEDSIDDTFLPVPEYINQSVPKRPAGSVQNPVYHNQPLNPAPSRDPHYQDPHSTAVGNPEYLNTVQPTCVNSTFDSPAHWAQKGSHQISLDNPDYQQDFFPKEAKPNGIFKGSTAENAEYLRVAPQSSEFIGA

| Structure (SMILES) | IC50 [1] [nM] | IC50 [2] [nM] | IC50 [3] [nM] |
| --- | --- | --- | --- |
| CN(CCOc1cccc2ncnc(Nc3ccc4c(cnn4Cc4ccccn4)c3)c12)C(=O)CO [Example 1, 2-Hydroxy-N-methyl-N-{2-[(4-{[1-(pyridin-2-ylmethyl)-1H-indazol-5-yl]amino}quinazolin-5-yl)oxy]ethyl}acetamide] | 180 | 8 | 420 |
| CN(CCOc1cccc2ncnc(Nc3ccc4c(cnn4Cc4cscn4)c3)c12)C(=O)CO [Example 2, 2-Hydroxy-N-methyl-N-{2-[(4-{[1-(1,3-thiazol-4-ylmethyl)-1H-indazol-5-yl]amino}quinazolin-5-yl)oxy]ethyl}acetamide] | 160 | 6 | 590 |

— patent US20090221616A1, “QUINAZOLINE DERIVATIVES AS EGF AND/OR ERBB2 TYROSINE KINASE INHIBITORS” (priority 2005, published 2009)
